Experimental data taken from patent publication US8278345B2, “Inhibitors of glutaminyl cyclase” (Probiodrug AG, priority 2006, dated 2012).
pIC50: −log10 of the molar value. Like-named read-outs stand apart in the source and are kept apart here.

Target: hQC (Homo sapiens, UniProt Q16769)
Experiment: Inhibitor assay for glutaminyl cyclase activity (fluorometric, H-Gln-βNA / H-Gln-AMC)
Type: biochemical
Summary of the method: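 Ki values came from fitting progress curves to a competitive inhibition model; rapid screens used 4 mM inhibitor with substrate at KM. QC activity was read at 30 °C via auxiliary pyroglutamyl aminopeptidase releasing βNA (0.2 mM H-Gln-βNA, 0.2 M Tris pH 8.0, 20 mM EDTA) or AMC (0.05 M Tris pH 8.0, 5 mM EDTA).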

[1] = compound from preparative synthesis, purified, read-out: IC50 hQC

Chain of hQC (Q16769 29-361): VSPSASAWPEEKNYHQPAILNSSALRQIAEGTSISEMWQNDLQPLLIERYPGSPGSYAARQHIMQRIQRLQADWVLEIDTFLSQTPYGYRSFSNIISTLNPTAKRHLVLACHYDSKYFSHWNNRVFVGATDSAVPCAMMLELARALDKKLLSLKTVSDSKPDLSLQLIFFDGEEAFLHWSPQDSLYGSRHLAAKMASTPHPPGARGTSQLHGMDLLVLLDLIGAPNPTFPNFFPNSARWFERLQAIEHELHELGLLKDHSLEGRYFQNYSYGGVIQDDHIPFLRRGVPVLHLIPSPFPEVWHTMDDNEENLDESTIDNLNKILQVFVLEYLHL

Structure (SMILES) | pIC50 (read-out: IC50) | pIC50 [1]
CC(=O)C1=C(O)C(=O)N(c2ccc3[nH]cnc3c2)C1C1=CCCCC1 (stereo not shown) [Compound 312, 4-Acetyl-1-(1H-benzoimidazol-5-yl)-5-cyclohex-1-enyl-3-hydroxy-1,5-dihydro-pyrrol-2-one] | 5.74 | 
CCCC(=O)C1=C(O)C(=O)N(c2ccc3[nH]cnc3c2)C1CCC (stereo not shown) [Compound 313, 1-(1H-Benzoimidazol-5-yl)-4-butyryl-3-hydroxy-5-propyl-1,5-dihydro-pyrrol-2-one] | 5.29 | 
CC(=O)C1=C(O)C(=O)N(c2ccc3[nH]cnc3c2)C1C1CCOC1 (stereo not shown) [Compound 314, 4-Acetyl-1-(1H-benzoimidazol-5-yl)-3-hydroxy-5-(tetrahydro-furan-3-yl)-1,5-dihydro-pyrrol-2-one] | 5.32 | 
CCC1=C(O)C(=O)N(c2ccc3[nH]cnc3c2)C1c1cc(F)cc(F)c1F (stereo not shown) [Compound 315, 1-(1H-Benzoimidazol-5-yl)-4-ethyl-3-hydroxy-5-(2,3,5-trifluoro-phenyl)-1,5-dihydro-pyrrol-2-one] | 5.83 | 
Cc1cccc(C2C(C(=O)C3CC3)=C(O)C(=O)N2c2ccc3[nH]cnc3c2)n1 (stereo not shown) [Compound 316, 1-(1H-Benzoimidazol-5-yl)-4-cyclopropanecarbonyl-3-hydroxy-5-(6-methyl-pyridin-2-yl)-1,5-dihydro-pyrrol-2-one] | 6.24 | 
O=C(C1=C(O)C(=O)N(c2ccc3[nH]cnc3c2)C1C1CCOC1)C1CC1 (stereo not shown) [Compound 317, 1-(1H-Benzoimidazol-5-yl)-4-cyclopropanecarbonyl-3-hydroxy-5-(tetrahydro-furan-3-yl)-1,5-dihydro-pyrrol-2-one] | 5.11 | 
CC(=O)C1=C(O)C(=O)N(c2ccc3[nH]cnc3c2)C1c1ccnc2ccccc12 (stereo not shown) [Compound 318, 4-Acetyl-1-(1H-benzoimidazol-5-yl)-3-hydroxy-5-quinolin-4-yl-1,5-dihydro-pyrrol-2-one] | 5.76 | 
CC1=C(O)C(=O)N(c2ccc3[nH]cnc3c2)C1c1ccc2cccc(O)c2n1 (stereo not shown) [Compound 319, 1-(1H-Benzoimidazol-5-yl)-3-hydroxy-5-(8-hydroxy-quinolin-2-yl)-4-methyl-1,5-dihydro-pyrrol-2-one] | 5.55 | 
Cc1ccc2c(C3C(c4c[nH]c5ccccc45)=C(O)C(=O)N3c3ccc4[nH]cnc4c3)c[nH]c2c1 (stereo not shown) [Compound 320, 1-(1H-Benzoimidazol-5-yl)-3-hydroxy-4-(1H-indol-3-yl)-5-(6-methyl-1H-indol-3-yl)-1,5-dihydro-pyrrol-2-one] | 5.02 | 
Cc1ccc(C2C(C(=O)c3cccs3)=C(O)C(=O)N2c2ccc3[nH]cnc3c2)o1 (stereo not shown) [Compound 321, 1-(1H-Benzoimidazol-5-yl)-3-hydroxy-5-(5-methyl-furan-2-yl)-4-(thiophene-2-carbonyl)-1,5-dihydro-pyrrol-2-one] | 6.12 | 
Cn1cc(C2C(CC(=O)O)=C(O)C(=O)N2c2ccc3[nH]cnc3c2)c2ccccc21 (stereo not shown) [Compound 322, [1-(1H-Benzoimidazol-5-yl)-4-hydroxy-2-(1-methyl-1H-indol-3-yl)-5-oxo-2,5-dihydro-1H-pyrrol-3-yl]-acetic acid] | 5.24 | 
CCCCCC1=C(O)C(=O)N(c2ccc3[nH]cnc3c2)C1c1cccc(F)c1 (stereo not shown) [Compound 323, 1-(1H-Benzoimidazol-5-yl)-5-(3-fluoro-phenyl)-3-hydroxy-4-pentyl-1,5-dihydro-pyrrol-2-one] | 5.78 | 
CCCC(=O)C1=C(O)C(=O)N(c2ccc3[nH]cnc3c2)C1CCC(=O)O (stereo not shown) [Compound 324, 3-[1-(1H-Benzoimidazol-5-yl)-3-butyryl-4-hydroxy-5-oxo-2,5-dihydro-1H-pyrrol-2-yl]-propionic acid] | 5.18 | 
CCCCCC1=C(O)C(=O)N(c2ccc3[nH]cnc3c2)C1c1ccccc1F (stereo not shown) [Compound 325, 1-(1H-Benzoimidazol-5-yl)-5-(2-fluoro-phenyl)-3-hydroxy-4-pentyl-1,5-dihydro-pyrrol-2-one] | 6.03 | 
CC1=C(O)C(=O)N(c2ccc3[nH]cnc3c2)C1c1nccs1 (stereo not shown) [Compound 326, 1-(1H-Benzoimidazol-5-yl)-3-hydroxy-4-methyl-5-thiazol-2-yl-1,5-dihydro-pyrrol-2-one] | 5.48 | 
CC(C)CC(=O)C1=C(O)C(=O)N(c2ccc3[nH]cnc3c2)C1c1ccc2cccc(O)c2n1 (stereo not shown) [Compound 327, 1-(1H-Benzoimidazol-5-yl)-3-hydroxy-5-(8-hydroxy-quinolin-2-yl)-4-(3-methyl-butyryl)-1,5-dihydro-pyrrol-2-one] | 8.40 | 8.35
CC1=C(O)C(=O)N(c2ccc3[nH]cnc3c2)C1c1coc2ccc(C)cc2c1=O (stereo not shown) [Compound 328, 1-(1H-Benzoimidazol-5-yl)-3-hydroxy-4-methyl-5-(6-methyl-4-oxo-4H-chromen-3-yl)-1,5-dihydro-pyrrol-2-one] | 6.51 | 
Cn1cc(C2C(c3c[nH]c4ccccc34)=C(O)C(=O)N2c2ccc3[nH]cnc3c2)c2ccccc21 (stereo not shown) [Compound 329, 1-(1H-Benzoimidazol-5-yl)-3-hydroxy-4-(1H-indol-3-yl)-5-(1-methyl-1H-indol-3-yl)-1,5-dihydro-pyrrol-2-one] | 5.20 | 

Structure (SMILES) | pIC50 (read-out: IC50) | pIC50 [1]
CC(=O)C1=C(O)C(=O)N(c2ccc3[nH]cnc3c2)C1c1cccc(C)n1 (stereo not shown) [Compound 330, 4-Acetyl-1-(1H-benzoimidazol-5-yl)-3-hydroxy-5-(6-methyl-pyridin-2-yl)-1,5-dihydro-pyrrol-2-one] | 5.68 | 
Cc1ccc2occ(C3C(C(C)C)=C(O)C(=O)N3c3ccc4[nH]cnc4c3)c(=O)c2c1 (stereo not shown) [Compound 331, 1-(1H-Benzoimidazol-5-yl)-3-hydroxy-4-isopropyl-5-(6-methyl-4-oxo-4H-chromen-3-yl)-1,5-dihydro-pyrrol-2-one] | 5.86 | 
Cc1ccc(O)c(C2C(c3c[nH]c4ccccc34)=C(O)C(=O)N2c2ccc3[nH]cnc3c2)c1 (stereo not shown) [Compound 332, 1-(1H-Benzoimidazol-5-yl)-3-hydroxy-5-(2-hydroxy-5-methyl-phenyl)-4-(1H-indol-3-yl)-1,5-dihydro-pyrrol-2-one] | 5.11 | 
CC(=O)C1=C(O)C(=O)N(c2ccc3[nH]cnc3c2)C1c1ccc(O)c(Br)c1 (stereo not shown) [Compound 333, 4-Acetyl-1-(1H-benzoimidazol-5-yl)-5-(3-bromo-4-hydroxy-phenyl)-3-hydroxy-1,5-dihydro-pyrrol-2-one] | 6.12 | 
CCCC(=O)C1=C(O)C(=O)N(c2ccc3[nH]cnc3c2)C1c1cccc(C)n1 (stereo not shown) [Compound 334, 1-(1H-Benzoimidazol-5-yl)-4-butyryl-3-hydroxy-5-(6-methyl-pyridin-2-yl)-1,5-dihydro-pyrrol-2-one] | 5.58 | 
CCCC(=O)C1=C(O)C(=O)N(c2ccc3[nH]cnc3c2)C1c1cc(C(F)(F)F)cc(C(F)(F)F)c1 (stereo not shown) [Compound 335, 1-(1H-Benzoimidazol-5-yl)-5-(3,5-bis-trifluoromethyl-phenyl)-4-butyryl-3-hydroxy-1,5-dihydro-pyrrol-2-one] | 5.17 | 
CSCC1=C(O)C(=O)N(c2ccc3[nH]cnc3c2)C1c1cc(Cl)ccc1O (stereo not shown) [Compound 336, 1-(1H-Benzoimidazol-5-yl)-5-(5-chloro-2-hydroxy-phenyl)-3-hydroxy-4-methylsulfanylmethyl-1,5-dihydro-pyrrol-2-one] | 6.51 | 6.81
CC1=C(O)C(=O)N(c2ccc3[nH]cnc3c2)C1c1cc(Cl)ccc1O (stereo not shown) [Compound 337, 1-(1H-Benzoimidazol-5-yl)-5-(5-chloro-2-hydroxy-phenyl)-3-hydroxy-4-methyl-1,5-dihydro-pyrrol-2-one] | 5.24 | 
O=C(O)CC1=C(O)C(=O)N(c2ccc3[nH]cnc3c2)C1c1cc(Br)ccc1F (stereo not shown) [Compound 338, [1-(1H-Benzoimidazol-5-yl)-2-(5-bromo-2-fluoro-phenyl)-4-hydroxy-5-oxo-2,5-dihydro-1H-pyrrol-3-yl]-acetic acid] | 5.66 | 
O=C1C(O)=C(c2ccccc2)C(c2c(F)ccc(Cl)c2F)N1c1ccc2[nH]cnc2c1 (stereo not shown) [Compound 339, 1-(1H-Benzoimidazol-5-yl)-5-(3-chloro-2,6-difluoro-phenyl)-3-hydroxy-4-phenyl-1,5-dihydro-pyrrol-2-one] | 6.24 | 
CCC1=C(O)C(=O)N(c2ccc3[nH]cnc3c2)C1c1cc(C)c(C)o1 (stereo not shown) [Compound 340, 1-(1H-Benzoimidazol-5-yl)-5-(4,5-dimethyl-furan-2-yl)-4-ethyl-3-hydroxy-1,5-dihydro-pyrrol-2-one] | 5.47 | 
CC(C)(C)C(=O)C1=C(O)C(=O)N(c2ccc3[nH]cnc3c2)C1c1cc(F)cc(F)c1F (stereo not shown) [Compound 341, 1-(1H-Benzoimidazol-5-yl)-4-(2,2-dimethyl-propionyl)-3-hydroxy-5-(2,3,5-trifluoro-phenyl)-1,5-dihydro-pyrrol-2-one] | 5.31 | 
Cc1cc(C2C(C(=O)C3CC3)=C(O)C(=O)N2c2ccc3[nH]cnc3c2)cc(C)c1O (stereo not shown) [Compound 342, 1-(1H-Benzoimidazol-5-yl)-4-cyclopropanecarbonyl-3-hydroxy-5-(4-hydroxy-3,5-dimethyl-phenyl)-1,5-dihydro-pyrrol-2-one] | 6.51 | 
Cc1ccc(O)c(C2C(C(=O)C3CC3)=C(O)C(=O)N2c2ccc3[nH]cnc3c2)c1 (stereo not shown) [Compound 343, 1-(1H-Benzoimidazol-5-yl)-4-cyclopropanecarbonyl-3-hydroxy-5-(2-hydroxy-5-methyl-phenyl)-1,5-dihydro-pyrrol-2-one] | 5.48 | 
CCCC(=O)C1=C(O)C(=O)N(c2ccc3[nH]cnc3c2)C1c1ccc(O)c(Br)c1 (stereo not shown) [Compound 344, 1-(1H-Benzoimidazol-5-yl)-5-(3-bromo-4-hydroxy-phenyl)-4-butyryl-3-hydroxy-1,5-dihydro-pyrrol-2-one] | 6.40 | 
CC(=O)C1=C(O)C(=O)N(c2ccc3[nH]cnc3c2)C1c1ccc(N2CCCC2)cc1 (stereo not shown) [Compound 345, 4-Acetyl-1-(1H-benzoimidazol-5-yl)-3-hydroxy-5-(4-pyrrolidin-1-yl-phenyl)-1,5-dihydro-pyrrol-2-one] | 5.80 | 
Cc1ccc2occ(C3C(c4c[nH]c5ccccc45)=C(O)C(=O)N3c3ccc4[nH]cnc4c3)c(=O)c2c1 (stereo not shown) [Compound 346, 1-(1H-Benzoimidazol-5-yl)-3-hydroxy-4-(1H-indol-3-yl)-5-(6-methyl-4-oxo-4H-chromen-3-yl)-1,5-dihydro-pyrrol-2-one] | 5.30 | 
